{"source": "patent US20190033294A1", "about": "“METHODS OF SCREENING DRUGS FOR CANCER TREATMENT USING CELLS GROWN ON A FIBER-INSPIRED SMART SCAFFOLD” (UNIVERSITY OF SOUTH FLORIDA, priority 2016, published 2019)", "key": {"HT-29 cells": {"tested_on": "HT-29 cells", "experiment": "Presto Blue cell viability, 2D monolayer", "settings": "monolayer culture; nine drugs at 0.1-20 μM, 72 hours", "quoted_text": "HT-29 cells were cultured in 2D monolayer for 24 hours. After 24 hours, the nine FDA-approved anticancer drugs were individually added to the cells at concentrations of 0.1, 1, 10, and 20 μM, and the cells were incubated for 72 hours, at which point viability of the cells was quantitated using Presto Blue assay (Life Technologies) according to the manufacturer's protocol. Raw fluorescence values of the treated groups were normalized to the average of the control and graphed in GraphPad Prism.\nHT-29 cells were cultured in 2D monolayer for 24 hours. After 24 hours, the nine FDA-approved anticancer drugs were individually added to the cells at concentrations of 0.1, 1, 10, and 20 μM, and the cells were incubated for 72 hours, at which point viability of the cells was quantitated using Presto Blue assay (Life Technologies) according to the manufacturer's protocol. Raw fluorescence values of the treated groups were normalized to the average of the untreated controls and graphed in GraphPad Prism.\nHT-29 cells were either grown in the standard 2-dimensional (2D) monolayer culture or in a 3-dimensional (3D) culture system using a novel fibrous scaffold. […] The monolayer cells and the 3D tumoroids were independently treated with increasing concentrations of nine FDA approved anti-cancer drugs. After 72 hours post-treatment a Presto Blue Cell Viability Assay (for monolayer) and CellTiter-Glo Viability Assay (for tumoroids) were used to quantitate the drug-induced cell death. The drug treated viability readings were normalized to the viability readings from untreated control. The percent viability was used to calculate the IC50 values of all the nine drugs in HT-29 cells."}, "HT-29 tumoroids": {"tested_on": "HT-29 tumoroids", "experiment": "CellTiter-Glo viability, tumoroids on 3D fibrous scaffold", "settings": "scaffold culture; nine drugs at 0.1-20 μM, 72 hours", "quoted_text": "HT-29 cells were cultured in the 3D fibrous scaffold from day 1 to day 7, at which point the nine FDA-approved anticancer drugs were individually added to the cells at concentrations of 0.1, 1, 10, and 20 μM. The cells were incubated for an additional 72 hours, at which point viability of the cells was quantitated using Celltiter-Glo assay (Promega) according to the manufacturer's protocol. Raw luminescence values of the treated groups were normalized to the average of the untreated controls and graphed in GraphPad Prism.\nHT-29 cells were either grown in the standard 2-dimensional (2D) monolayer culture or in a 3-dimensional (3D) culture system using a novel fibrous scaffold. […] The monolayer cells and the 3D tumoroids were independently treated with increasing concentrations of nine FDA approved anti-cancer drugs. After 72 hours post-treatment a Presto Blue Cell Viability Assay (for monolayer) and CellTiter-Glo Viability Assay (for tumoroids) were used to quantitate the drug-induced cell death. The drug treated viability readings were normalized to the viability readings from untreated control."}, "Sox2 in MCF-7 tumoroids": {"tested_on": "Sox2 in MCF-7 tumoroids", "experiment": "Sox2 expression in tumoroids after drug treatment (western blot / RT-PCR)", "format": "cell-based, human", "method": "(§1) MCF-7 and MCF-7/dox were allowed to form tumoroids on scaffold for 6 days following which they were exposed to Actinomycin D for 24 hrs. At the end of 24 hrs the tumoroids were dissociated and processed for either western blotting (A) or real-time RT-PCR (B). Sox2 protein and transcript levels were analyzed and normalized to HPRT (C) Second generation MCF-7 tumoroids were cultured in a 96 well plate for 6 days. Tumoroids were treated with increasing concentrations of Actinomycin D on day 4 in groups of 4 wells. After a 48 hr treatment, cell viability was assayed using Cell Titer Glo(Promega) on day 6. Viability was calculated as a percent of control untreated wells and graphed using Graph Pad Prism software. (D) Tumoroids were treated with Actinomycin D for 48 hr. Following treatment tumoroids were dissociated and cells were co-stained using FITC conjugated CD44 antibody and Alexa Fluor-647 conjugated CD24 antibody. CD44^highCD24^low stem-like populations in MCF7 tumoroids were assessed by flow cytometer. Data was collected using a BD FACS Canto 2 flow cytometer.\n(§2) MCF-7 and MCF-7/dox cells were seeded as monolayer and 3D tumoroid cultures in 96 well plates. […] Collagenase was used to detach the cells from the plate/scaffold platform. The cell pellet was resuspended in RIPA buffer and vortexed for 30 min followed by centrifugation at 4° C. at 13000 rpm to collect the protein extract. Protein content was determined by using BCA method and followed for western blot procedure. Antibodies for Nanog, Oct 4a, Sox2, and GAPDH/HPRT were obtained from Cell Signaling.\n(§3) To determine the effects of Actinomycin D on the Sox2 protein levels in both MCF-7 and MCF-7/dox cell lines, MCF7 wt and MCF7-dox cells were seeded as monolayer and 3D tumoroid cultures (both in controls and cobalt chloride (CoCl2) scaffold cultures) in 96 well plates. […] Collagenase was used to detach the cells from the plate/scaffold platform. The cell pellet was then dissolved in trizol and RNA was isolated. RT-PCR was performed using 2 step process namely 1) cDNA synthesis using DNAase-1 treated RNA and 2) PCR was performed using primers of the gene of interest. […] The decrease in Sox2 expression was 2 fold in both the cell lines tested when compared to the control untreated tumoroids (2.05 vs. 0.75 pixel density in MCF-7 and 1.05 vs. 0.5 pixel density in MCF-7/dox) (FIG. 8B). […] Actinomycin D targets and down-regulates the expression of Sox2 resulting in depletion of stem-like cell population, which hampers the breast cancer cell's ability to initiate spheroids."}, "[1]": {"tested_on": "Sox2 in MCF-7/dox tumoroids", "experiment": "Sox2 expression in tumoroids after drug treatment (western blot / RT-PCR)", "format": "cell-based, human", "method": "as §1, §2, §3"}, "[2]": {"tested_on": "Second generation MCF-7 tumoroids", "experiment": "Cell Titer Glo viability of second generation tumoroids", "format": "cell-based, human", "settings": "48 hr treatment", "method": "as §1"}, "[3]": {"tested_on": "CD44highCD24low cells in MCF-7 tumoroids", "experiment": "Flow cytometry of CD44highCD24low stem-like population in tumoroids", "format": "cell-based, human", "settings": "48 hr treatment, compared to untreated controls", "method": "as §1\nTo further investigate the potential of the FiSS for use in cancer drug discovery by characterizing the BCSCs within the tumoroids, MCF-7 cells were seeded onto scaffolds in 6 well plates at 240,000 cells per well. Cells were cultured for 6 days in RPMI media to form primary tumoroids. […]"}, "MCF-7 cells": {"tested_on": "MCF-7 cells", "experiment": "Presto-blue cell viability, monolayer culture", "settings": "for potency in high throughput screening: NCI Oncology set, 4 point log-dose 0.1 to 100 μM, 72 hrs", "quoted_text": "(§4) (B) MCF-7 and MCF-7/dox cells were cultured on or on scaffold for 6 days and then cells were treated with increasing concentration of Doxorubicin. Forty-eight hrs post-treatment, cell viability was analyzed using presto-blue as per manufacturer's instructions. The % cell death was analyzed and the IC50 calculated using Graph Pad Prism. Data are represented as Mean±SEM of three independent experiments performed in triplicates (*p<0.05).\n(§5) (A) MCF-7 and (B) MCF-7/dox cells were cultured on monolayer and then treated with increasing concentration of compounds from NCI Approved Oncology Drugs Set VII. Forty-eight hrs post-treatment, cell viability was analyzed using presto-blue as per manufacturer's instructions. The % cell death was analyzed and the IC50 calculated using Graph Pad Prism. Data are represented as Mean of experiments performed in triplicates.\n(§6) To conduct a high through put screening for compounds that induce cell death in breast cancer, the FDA-approved Oncology Diversity set was obtained from NCI in 96 well plate format with each well containing 20 μl of 10 mM drug stock. All different cell lines were cultured either in regular 96 wells plate without scaffold (served as monolayer) and with FiSS (scaffold culture) in complete medium. […] Drugs were added in triplicates with varying concentrations. The cells were incubated for 72 hrs in a humidified atmosphere under 5% CO2 at 37° C., then cell viability was measured using Presto-blue (Fisher Scientific). […] MCF-7 ad MCF-7/dox were used in a monolayer in a 96 well plate, and then treated with a NCI Oncology diversity set containing FDA-approved anti-cancer drugs. Each drug was used in a 4 point log-dose from 0.1 to 100 μM. Untreated cells were used as control and the cell death was estimated at the end of 72 hrs post-treatment."}, "MCF-7/dox cells": {"tested_on": "MCF-7/dox cells", "experiment": "Presto-blue cell viability, monolayer culture", "settings": "for potency in high throughput screening: NCI Oncology set, 4 point log-dose 0.1 to 100 μM, 72 hrs", "quoted_text": "as §4, §5, §6"}, "MDA-MB-231 cells": {"tested_on": "MDA-MB-231 cells", "experiment": "Presto-blue cell viability, breast cancer cell panel", "settings": "read-out: MDA-MB-231 (IC50); Table 1, validation of hits in breast cancer cell panel", "quoted_text": "(§7) All different cell lines were cultured either in regular 96 wells plate without scaffold (served as monolayer) and with FiSS (scaffold culture) in complete medium. For scaffold culture, 75% medium was carefully removed and replaced with 150 μl of fresh medium every alternate day. After five/six days of scaffold culture, cells were stained with NucBlue (Fisher Scientific) to check if tumoroids had formed. Drugs were added in triplicates with varying concentrations. The cells were incubated for 72 hrs in a humidified atmosphere under 5% CO2 at 37° C., then cell viability was measured using Presto-blue (Fisher Scientific)."}, "BT474 cells": {"tested_on": "BT474 cells", "experiment": "Presto-blue cell viability, breast cancer cell panel", "settings": "read-out: BT474 (IC50); Table 1, validation of hits in breast cancer cell panel", "quoted_text": "as §7"}, "MCF-7 tumoroids": {"tested_on": "MCF-7 tumoroids", "experiment": "Presto-blue cell viability, tumoroids on FiSS scaffold", "quoted_text": "(§8) (A) MCF-7 and MCF-7/dox cells were cultured on the scaffold for 6 days and then visualized using Nuc-blue. (B) MCF-7 and MCF-7/dox cells were cultured on or on scaffold for 6 days and then cells were treated with increasing concentration of Doxorubicin. Forty-eight hrs post-treatment, cell viability was analyzed using presto-blue as per manufacturer's instructions. The % cell death was analyzed and the IC50 calculated using Graph Pad Prism. Data are represented as Mean±SEM of three independent experiments performed in triplicates (*p<0.05).\n(§9) MCF-7 and MCF-7/dox cells were cultured on monolayer or on scaffold in normoxia or hypoxia for 6 days. At the end of culture period, the monolayer cells and tumoroids were treated with increasing concentration of Actinomycin D. Forty-eight hrs post-treatment, cell viability was analyzed using presto-blue as per manufacturer's instructions. The % cell death was analyzed and the IC50 calculated using Graph Pad Prism. Data are represented as Mean±SEM of three independent experiments performed in triplicates (*p<0.05).\n(§10) To conduct a high through put screening for compounds that induce cell death in breast cancer, the FDA-approved Oncology Diversity set was obtained from NCI in 96 well plate format with each well containing 20 μl of 10 mM drug stock. All different cell lines were cultured either in regular 96 wells plate without scaffold (served as monolayer) and with FiSS (scaffold culture) in complete medium. For scaffold culture, 75% medium was carefully removed and replaced with 150 μl of fresh medium every alternate day. After five/six days of scaffold culture, cells were stained with NucBlue (Fisher Scientific) to check if tumoroids had formed. Drugs were added in triplicates with varying concentrations. The cells were incubated for 72 hrs in a humidified atmosphere under 5% CO2 at 37° C., then cell viability was measured using Presto-blue (Fisher Scientific)."}, "MCF-7/dox tumoroids": {"tested_on": "MCF-7/dox tumoroids", "experiment": "Presto-blue cell viability, tumoroids on FiSS scaffold", "quoted_text": "as §8, §9, §10"}, "[4]": {"settings": "read-out: MCF7-WT (IC50), Table 1, validation of hits in breast cancer cell panel"}, "[5]": {"settings": "read-out: MCF7-DOX (IC50), Table 1, validation of hits in breast cancer cell panel"}}, "note": "Structures can show the parent of a compound that is named as a salt. Where two headings read alike, the source gives them in different places. Starred links: 1 amine or outer side, 2 acyl side, 3 side chain; linkers in the order of their positions; H or OH if unused. Positions of bridges follow the written chain, without caps; N, C: chain ends. Non-standard residues stand in square brackets, D forms with d. Residues, ends and D or L forms follow the SMILES beside them. Chains are numbered I, II in the order given. Actinocin(9to1) = Cc1c2oc3c(C)ccc(C(=O)[*:1])c3nc-2c(C(=O)[*:2])c(N)c1=O; NMeV = CN[C@H](C(=O)O)C(C)C; Sar = CNCC(=O)O"}
{"compound": "Nc1nc2nc[nH]c2c(=S)[nH]1", "note": "[6-thioguanine]", "values": [{"measurement": "rank as inhibitor of HT-29 cell viability", "setting": "HT-29 cells", "result": "least potent inhibitors"}, {"measurement": "rank as inhibitor of HT-29 cell viability", "setting": "HT-29 tumoroids", "result": "least potent inhibitors"}]}
{"compound": "Cc1c2oc3c(C)ccc(C(=O)N[C@@H]4C(=O)N[C@H](C(C)C)C(=O)N5CCC[C@H]5C(=O)N(C)CC(=O)N(C)[C@@H](C(C)C)C(=O)O[C@@H]4C)c3nc-2c(C(=O)N[C@@H]2C(=O)N[C@H](C(C)C)C(=O)N3CCC[C@H]3C(=O)N(C)CC(=O)N(C)[C@@H](C(C)C)C(=O)O[C@@H]2C)c(N)c1=O", "note": "[Actinomycin D] (I: T[dV]P[Sar][NMeV] / II: T[dV]P[Sar][NMeV]; ester I:1-I:C, II:1-II:C; linker I:N-II:N via Actinocin(9to1))", "values": [{"measurement": "Sox2 expression", "setting": "Sox2 in MCF-7 tumoroids; MCF-7 tumoroids treated 24 hrs at concentration based on IC50, untreated control 2.05", "result": 0.75, "unit": "pixel density"}, {"measurement": "decrease in Sox2 expression", "setting": "Sox2 in MCF-7 tumoroids; MCF-7 tumoroids vs control untreated tumoroids", "result": 2, "unit": "fold"}, {"measurement": "Sox2 expression", "setting": "[1]; MCF-7/dox tumoroids treated 24 hrs at concentration based on IC50, untreated control 1.05", "result": 0.5, "unit": "pixel density"}, {"measurement": "decrease in Sox2 expression", "setting": "[1]; MCF-7/dox tumoroids vs control untreated tumoroids", "result": 2, "unit": "fold"}, {"measurement": "IC50", "setting": "[2]", "result": 29, "unit": "nM"}, {"measurement": "CD44highCD24low population", "setting": "[3]", "result": "decreased"}, {"measurement": "IC50", "setting": "MCF-7 cells; MCF-7 monolayer, 48 hrs post-treatment, mean±SEM", "result": "70 ± 6", "unit": "nM"}, {"measurement": "potency in high throughput screening", "setting": "MCF-7 cells; MCF-7 monolayer", "result": "high potency"}, {"measurement": "IC50", "setting": "MCF-7 cells; [4]", "result": "50 ± 10", "unit": "nM"}, {"measurement": "IC50", "setting": "MCF-7/dox cells; MCF-7/dox monolayer, 48 hrs post-treatment, mean±SEM", "result": "37 ± 21", "unit": "nM"}, {"measurement": "potency in high throughput screening", "setting": "MCF-7/dox cells; MCF-7/dox monolayer", "result": "high potency"}, {"measurement": "IC50", "setting": "MCF-7/dox cells; [5]", "result": "50 ± 18", "unit": "nM"}, {"measurement": "IC50", "setting": "MDA-MB-231 cells", "result": "30 ± 10", "unit": "nM"}, {"measurement": "IC50", "setting": "BT474 cells", "result": "240 ± 30", "unit": "nM"}, {"measurement": "IC50", "setting": "MCF-7 tumoroids; MCF-7 tumoroids on scaffold, hypoxic conditions (CoCl2)", "result": "1040 ± 70", "unit": "nM"}, {"measurement": "IC50", "setting": "MCF-7 tumoroids; MCF-7 tumoroids on scaffold, normoxia, 6 days culture, 48 hrs treatment", "result": "780 ± 250", "unit": "nM"}, {"measurement": "IC50", "setting": "MCF-7/dox tumoroids; MCF-7/dox tumoroids on scaffold, hypoxic conditions (CoCl2)", "result": "2240 ± 460", "unit": "nM"}, {"measurement": "IC50", "setting": "MCF-7/dox tumoroids; MCF-7/dox tumoroids on scaffold, normoxia, 6 days culture, 48 hrs treatment", "result": "1660 ± 60", "unit": "nM"}]}
{"compound": "CO[C@@]12[C@H](COC(N)=O)C3=C(C(=O)C(C)=C(N)C3=O)N1C[C@@H]1N[C@@H]12", "note": "[Mitomycin C]", "values": [{"measurement": "potency in high throughput screening", "setting": "MCF-7 cells; MCF-7 monolayer", "result": "high potency"}, {"measurement": "IC50", "setting": "MCF-7 cells; [4]", "result": "170 ± 60", "unit": "nM"}, {"measurement": "potency in high throughput screening", "setting": "MCF-7/dox cells; MCF-7/dox monolayer", "result": "high potency"}, {"measurement": "IC50", "setting": "MCF-7/dox cells; [5]", "result": "120 ± 10", "unit": "nM"}, {"measurement": "IC50", "setting": "MDA-MB-231 cells", "result": "30 ± 10", "unit": "nM"}, {"measurement": "IC50", "setting": "BT474 cells", "result": "30 ± 4", "unit": "nM"}]}
{"compound": "N.N.[Cl][Pt][Cl]", "note": "[cisplatin]", "values": [{"measurement": "rank as inhibitor of HT-29 cell viability", "setting": "HT-29 cells", "result": "least potent inhibitors"}, {"measurement": "rank as inhibitor of HT-29 cell viability", "setting": "HT-29 tumoroids", "result": "least potent inhibitors"}]}
{"compound": "Nc1ccn([C@@H]2O[C@H](CO)[C@@H](O)[C@@H]2O)c(=O)n1", "note": "[cytarabine]", "values": [{"measurement": "rank as inhibitor of HT-29 cell viability", "setting": "HT-29 cells", "result": "least potent inhibitors"}, {"measurement": "rank as inhibitor of HT-29 cell viability", "setting": "HT-29 tumoroids", "result": "least potent inhibitors"}]}
{"compound": "COc1cccc2c1C(=O)c1c(O)c3c(c(O)c1C2=O)C[C@@](O)(C(C)=O)C[C@@H]3O[C@H]1C[C@H](N)[C@H](O)[C@H](C)O1", "note": "[daunorubicin (hydrochloride)]", "values": [{"measurement": "rank as inhibitor of HT-29 cell viability", "setting": "HT-29 cells", "result": "most potent inhibitors"}, {"measurement": "rank as inhibitor of HT-29 cell viability", "setting": "HT-29 tumoroids", "result": "most potent inhibitors"}]}
{"compound": "COc1cccc2c1C(=O)c1c(O)c3c(c(O)c1C2=O)C[C@@](O)(C(=O)CO)C[C@@H]3O[C@H]1C[C@H](N)[C@H](O)[C@H](C)O1", "note": "[doxorubicin]", "values": [{"measurement": "IC50", "setting": "MCF-7 cells; Homo sapiens, MCF7, 48 h", "result": "180 ± 8", "unit": "nM"}, {"measurement": "IC50", "setting": "MCF-7/dox cells; Homo sapiens, MCF7-DOX, 48 h", "result": "4400 ± 280", "unit": "nM"}, {"measurement": "fold more resistant than MCF-7", "setting": "MCF-7/dox cells; MCF-7/dox vs MCF-7 in monolayer", "result": 24, "unit": "fold"}, {"measurement": "IC50", "setting": "MCF-7 tumoroids; Homo sapiens, MCF7", "result": "1310 ± 270", "unit": "nM"}, {"measurement": "IC50", "setting": "MCF-7/dox tumoroids; Homo sapiens, MCF7-DOX", "result": "23100 ± 5350", "unit": "nM"}]}
{"compound": "COc1cccc2c1C(=O)c1c(O)c3c(c(O)c1C2=O)C[C@@](O)(C(=O)CO)C[C@@H]3O[C@H]1C[C@H](N)[C@@H](O)[C@H](C)O1", "note": "[epirubicin (hydrochloride)]", "values": [{"measurement": "rank as inhibitor of HT-29 cell viability", "setting": "HT-29 cells", "result": "most potent inhibitors"}, {"measurement": "rank as inhibitor of HT-29 cell viability", "setting": "HT-29 tumoroids", "result": "most potent inhibitors"}]}
